Measured values published in ChEMBL document CHEMBL1154115, “NO-glibenclamide derivatives: prototypes of a new class of nitric oxide-releasing anti-diabetic drugs” (Bioorg Med Chem, 2009).
Activity calls are given as the source filed them. The rule behind the calls is not given here.

How the values were obtained:
[1] = Induction of 20 mM glucose-stimulated insulin secretion in human pancreatic islet cells assessed as insulin stimulation index at 10 uM by immunoradiometric assay; format: functional
Platelet = assay: Inhibition of ADP-induced platelet aggregation in human platelet-rich plasma at 100 uM treated 2 mins before ADP challenge by turbidimetric method; format: functional; set-up: scale not given: the % may be the effect or the level left
[2] = Induction of 20 mM glucose-stimulated insulin secretion in human pancreatic islet cells assessed as insulin stimulation index at 100 uM by immunoradiometric assay; format: functional
Rattus norvegicus = assay: Hypoglycemic activity in streptozotocin-induced diabetic Wistar rat assessed as reduction in blood glucose AUC level at 10 mg/kg, ip measured for 2 hrs (Rvb= 45318 mg/dl/2 h); format: functional, organism-based; set-up: dose 10 mg/kg
Liver = assay: Induction of NO release in Wistar rat liver homogenate at 200 uM by amperometric detection method; format: functional, tissue-based
Aorta = assay: Vasorelaxant activity in endothelium-denuded Wistar rat thoracic aortic ring assessed as inhibition of KCl-induced contraction; format: functional, tissue-based

Question: For `COc1ccc(Cl)cc1C(=O)NCCc1ccc(S(=O)(=O)NC(=O)N[C@H]2CC[C@H](O)CC2)cc1` [4-TRANS-HYDROXY-GLYBENCLAMIDE], which Activity [1] is on record?
Answer: 6

Question: What about the Activity (Platelet) of the same compound?
Answer: 76%

Question: What about the Activity [2] of the same compound?
Answer: 8.2

Question: And the AUC (Rattus norvegicus)?
Answer: 34500 mg·min/dL

Question: And the Activity (Liver)?
Answer: inactive

Question: With `COc1ccc(Cl)cc1C(=O)NCCc1ccc(S(=O)(=O)NC(=O)NC2CCCCC2)cc1` [GLYBURIDE] as the compound, how does the Activity [1] read?
Answer: 4.3

Question: What about the Activity (Platelet) of the same compound?
Answer: 67%

Question: And the Activity [2]?
Answer: 5.2

Question: And the AUC (Rattus norvegicus)?
Answer: 33100 mg·min/dL

Question: What about the Activity (Liver) of the same compound?
Answer: inactive

Question: For `O=[N+]([O-])OCC(CO[N+](=O)[O-])O[N+](=O)[O-]` [NITROGLYCERIN], which Activity (Platelet) is on record?
Answer: 28%

Question: And the Emax (Aorta)?
Answer: 98%

Question: And the IC50 (Aorta)?
Answer: 58.9 nM

Question: And the Activity (Liver)?
Answer: 600 nM
